pIC50: −log10 of the molar value. Values belong to the compound of their own block, whether it stands above or below them. Activity calls are given as the source filed them. The rule behind the calls is not given here.
Assays:
[1] = system: HT-29; assay: Cytotoxicity against human HT-29 cells after 24 hrs by MTT assay; type: functional, cell-based; conditions: HT-29, 24 h
[2] = system: MCF7; assay: cells; conditions: Homo sapiens, MCF7, 24 h
Description: Cytotoxicity against human MCF7 cells after 24 hrs by MTT assay

[3] = Cytotoxicity against human C643 cells after 24 hrs by MTT assay; conditions: C643, 24 h
[4] = system: MCF7; assay: Induction of apoptosis in human MCF7 cells assessed as cytochrome C release at 50 nM after 72 hrs by Western blotting analysis; type: functional, cell-based
[5] = system: MCF7; assay: Induction of apoptosis in human MCF7 cells assessed as early apoptotic cells at 50 nM after 72 hrs by annexin V-FITC/propidium iodide staining based FACS flow cytometry (reference value: 4 %); type: functional
[6] = system: MCF7; assay: Induction of apoptosis in human MCF7 cells assessed as accumulation at subG1 phase at 50 nM by propidium iodide staining-based FACS analysis; type: functional, cell-based; conditions: TDE = time-dependent effect
[7] = molecular target: T1, Tumour suppressor p53/oncoprotein Mdm2 (Homo sapiens) (UniProt P04637+Q00987); assay: Inhibition of MDM2-p53 interaction in human MCF7 cells after 72 hrs by immunoprecipitation assay; type: cell-based
[8] = system: U-937; assay: Cytotoxicity against human U937 cells after 24 hrs by MTT assay; type: functional, cell-based; conditions: U-937, 24 h
[9] = system: MCF7; assay: Cell cycle arrest in human MCF7 cells assessed as accumulation at G1 phase at 50 to 5000 nM after 24 hrs by propidium iodide staining-based FACS analysis relative to control; type: functional
[10] = system: MCF7; assay: Induction of apoptosis in human MCF7 cells assessed as increase in p21 expression level at 50 nM by Western blotting analysis; type: functional, cell-based; conditions: TDE = time-dependent effect
[11] = system: MCF7; assay: Cell cycle arrest in human MCF7 cells assessed as accumulation at S phase at 50 to 5000 nM after 24 hrs by propidium iodide staining-based FACS analysis relative to control; type: functional
[12] = system: MCF7; assay: Induction of apoptosis in human MCF7 cells assessed as accumulation of caspase-3 cleavage product at 50 nM after 24 to 72 hrs by Western blotting analysis
[13] = system: MCF7; assay: Cell cycle arrest in human MCF7 cells assessed as accumulation at G2M phase at 50 to 5000 nM after 24 hrs by propidium iodide staining-based FACS analysis relative to control; type: functional
[14] = system: MCF7; assay: Induction of apoptosis in human MCF7 cells assessed as reduction in Bcl-xL expression level at 50 nM after 24 to 72 hrs by Western blotting analysis; type: functional, cell-based
[15] = system: MCF7; assay: Cell cycle arrest in human MCF7 cells assessed as accumulation at G1 phase at 50 nM after 24 to 72 hrs by propidium iodide staining-based FACS analysis relative to control; type: functional
[16] = molecular target: T1, Tumour suppressor p53/oncoprotein Mdm2 (Homo sapiens); assay: Inhibition of MDM2-p53 interaction in human MCF7 cells assessed as reduction in p53 level bound to MDM2 after 24 to 48 hrs by immunoprecipitation assay; type: cell-based
[17] = system: HepG2; assay: cells; conditions: Homo sapiens, HepG2, 24 h
Description: Cytotoxicity against human HepG2 cells after 24 hrs by MTT assay

[18] = system: PC-3; assay: cells; conditions: Homo sapiens, PC-3, 24 h
Description: Cytotoxicity against human PC3 cells after 24 hrs by MTT assay

[19] = Cytotoxicity against human Calu cells after 24 hrs by MTT assay; type: functional, cell-based
[20] = Ratio of Doxorubicin IC50 to compound IC50 against human Calu cells; type: functional
[21] = system: MCF7; assay: Induction of apoptosis in human MCF7 cells assessed as early apoptotic cells at 50 nM after 48 hrs by annexin V-FITC/propidium iodide staining based FACS flow cytometry (reference value: 4 %); type: functional
[22] = system: MCF7; assay: Cell cycle arrest in human MCF7 cells assessed as accumulation at G2M phase at 50 nM after 24 to 72 hrs by propidium iodide staining-based FACS analysis relative to control; type: functional
[23] = molecular target: T1, Tumour suppressor p53/oncoprotein Mdm2 (Homo sapiens); assay: Inhibition of MDM2-p53 interaction in human MCF7 cells assessed as p53 accumulation at 50 nM after 24 to 72 hrs by Western blot analysis; type: cell-based
[24] = Cytotoxicity against human HGF cells after 24 hrs by MTT assay; type: cell-based
[25] = system: MCF7; assay: Induction of apoptosis in human MCF7 cells assessed as increase in p53 expression level at 50 nM by Western blotting analysis; type: functional, cell-based; conditions: TDE = time-dependent effect
[26] = molecular target: T1, Tumour suppressor p53/oncoprotein Mdm2 (Homo sapiens); assay: Inhibition of MDM2-p53 interaction in human MCF7 cells assessed as MDM2 accumulation at 50 nM after 24 to 72 hrs by Western blot analysis; type: cell-based
[27] = system: MCF7; assay: Induction of apoptosis in human MCF7 cells assessed as increase in p27 expression level at 50 nM by Western blotting analysis; type: functional, cell-based; conditions: TDE = time-dependent effect
[28] = system: MCF7; assay: Cell cycle arrest in human MCF7 cells assessed as accumulation at S phase at 50 nM after 24 to 72 hrs by propidium iodide staining-based FACS analysis relative to control; type: functional
[29] = system: MCF7; assay: Induction of apoptosis in human MCF7 cells assessed as increase in Bcl-xS expression level at 50 nM after 24 to 72 hrs by Western blotting analysis; type: functional, cell-based

T1 sequence (P04637 whole entry, looked up): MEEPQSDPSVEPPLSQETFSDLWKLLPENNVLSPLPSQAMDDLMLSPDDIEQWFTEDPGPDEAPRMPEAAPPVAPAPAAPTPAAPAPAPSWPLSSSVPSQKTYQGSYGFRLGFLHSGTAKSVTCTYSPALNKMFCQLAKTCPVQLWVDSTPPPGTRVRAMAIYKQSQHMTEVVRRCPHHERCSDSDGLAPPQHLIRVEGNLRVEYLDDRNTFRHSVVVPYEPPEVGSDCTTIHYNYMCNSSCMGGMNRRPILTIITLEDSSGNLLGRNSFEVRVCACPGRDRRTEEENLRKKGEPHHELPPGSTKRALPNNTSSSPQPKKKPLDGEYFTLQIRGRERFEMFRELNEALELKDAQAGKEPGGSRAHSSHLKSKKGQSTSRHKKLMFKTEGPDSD
T1 sequence (Q00987 whole entry, looked up): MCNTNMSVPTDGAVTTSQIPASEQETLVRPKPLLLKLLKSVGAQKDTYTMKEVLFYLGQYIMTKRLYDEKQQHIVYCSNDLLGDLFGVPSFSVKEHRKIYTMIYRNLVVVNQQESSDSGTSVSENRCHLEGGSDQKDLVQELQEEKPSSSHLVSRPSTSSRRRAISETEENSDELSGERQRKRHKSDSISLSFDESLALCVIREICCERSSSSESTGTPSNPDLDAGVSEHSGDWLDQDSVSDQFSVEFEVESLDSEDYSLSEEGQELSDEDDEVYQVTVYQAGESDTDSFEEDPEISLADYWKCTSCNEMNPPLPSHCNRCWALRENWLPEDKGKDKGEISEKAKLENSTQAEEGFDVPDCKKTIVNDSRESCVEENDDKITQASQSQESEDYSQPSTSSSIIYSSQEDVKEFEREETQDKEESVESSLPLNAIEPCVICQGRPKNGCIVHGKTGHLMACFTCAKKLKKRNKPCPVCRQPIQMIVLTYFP

Structure (SMILES): CCOC(=O)[C@@H]1CS[C@@]2(C(=O)Nc3ccc(C)cc32)N1C(=O)c1ccc(Cl)cc1
pIC50 [1]: 5.96
pIC50 [2]: 5.67

Structure (SMILES): CCOC(=O)[C@@H]1CS[C@@]2(C(=O)Nc3ccc(Br)cc32)N1C(=O)c1ccc(Cl)cc1
pIC50 [1]: 6.96
pIC50 [2]: 6.05

Structure (SMILES): CCOC(=O)[C@@H]1CS[C@@]2(C(=O)N(C)c3ccccc32)N1C(=O)c1ccc(Cl)cc1
pIC50 [1]: 6.74
pIC50 [2]: 5.34

Structure (SMILES): CCOC(=O)[C@@H]1CS[C@@]2(C(=O)N(C)c3ccc(C)cc32)N1C(=O)c1ccc(Cl)cc1
pIC50 [1]: 6.92
pIC50 [2]: 5.91

Structure (SMILES): CCOC(=O)[C@@H]1CS[C@@]2(C(=O)N(C)c3ccc(Br)cc32)N1C(=O)Cc1ccc(Cl)cc1
pIC50 [1]: 6.44
pIC50 [2]: 6.57

Structure (SMILES): CCOC(=O)[C@@H]1CS[C@@]2(C(=O)N(C)c3ccc(Br)cc32)N1C(=O)c1ccc(C)cc1
pIC50 [1]: 7.05
pIC50 [2]: 7.22

Structure (SMILES): CCOC(=O)[C@@H]1CS[C@]2(N1)C(=O)N(C(=O)c1ccc(Cl)cc1)c1ccc(C)cc12
pIC50 [1]: 6.64
pIC50 [2]: 5.46

Structure (SMILES): CCOC(=O)[C@@H]1CS[C@]2(N1)C(=O)N(C(=O)c1ccc(Cl)cc1)c1ccc(Br)cc12
pIC50 [1]: 7.70
pIC50 [2]: 6.82

Structure (SMILES): CCOC(=O)[C@@H]1CS[C@]2(N1)C(=O)N(C(=O)C1CCCCC1)c1ccc(Br)cc12
pIC50 [1]: 5.85

Structure (SMILES): CCOC(=O)C1=N[C@@]2(SC1)C(=O)N(C(=O)C1CCCCC1)c1ccc(Br)cc12
pIC50 [1]: 6.07

Structure (SMILES): CCOC(=O)[C@@H]1CS[C@@]2(C(=O)Nc3ccc(Br)cc32)N1C(=O)Cc1ccc(Cl)cc1
pIC50 [1]: 6.18
pIC50 [2]: 5.54

Structure (SMILES): O=C1C2CSC3(C(=O)Nc4ccccc43)N2C(=O)N1Cc1ccc(Cl)cc1 (configuration not stated)
pIC50 [1]: 5.80
pIC50 [2]: 5.92

Structure (SMILES): CCOC(=O)[C@@H]1CS[C@@]2(C(=O)N(C)c3ccc(C)cc32)N1C(=O)C1CCCCC1 (mixture of isomers)
pIC50 [1]: 5.96
pIC50 [2]: 5.92

Structure (SMILES): CN1C(=O)[C@@]2(SC[C@@H](C(=O)O)N2C(=O)C2CCCCC2)c2cc(Br)ccc21 (mixture of isomers)
pIC50 [1]: 5.72
pIC50 [2]: 5.70

Structure (SMILES): CCOC(=O)C1=N[C@@]2(SC1)C(=O)N(C(=O)c1ccc(Cl)cc1)c1ccc(Br)cc12 (single isomer, unassigned)
pIC50 [1]: 6.70
pIC50 [2]: 6.07

Structure (SMILES): COc1cccc2c1C(=O)c1c(O)c3c(c(O)c1C2=O)C[C@@](O)(C(=O)CO)C[C@@H]3O[C@H]1C[C@H](N)[C@H](O)[C@H](C)O1 [DOXORUBICIN]
pIC50 [8]: 6.92
pIC50 [17]: 7.10
pIC50 [18]: 6.12
pIC50 [19]: 5.74
pIC50 [24]: 6.30

Further lines, with some results ahead:

pIC50 [2]: 5.67
Structure (SMILES): CCOC(=O)[C@@H]1CS[C@@]2(C(=O)Nc3ccccc32)N1C(=O)c1ccc(Cl)cc1
pIC50 [1]: 5.43

pIC50 [2]: 5.52
Structure (SMILES): CCOC(=O)[C@@H]1CS[C@]2(C(=O)Nc3ccc(Br)cc32)N1C(=O)c1ccc(Cl)cc1
pIC50 [1]: 5.70

pIC50 [2]: 6.28
Structure (SMILES): CCOC(=O)[C@@H]1CS[C@@]2(C(=O)N(C)c3ccc(Br)cc32)N1C(=O)c1ccc(Cl)cc1
pIC50 [1]: 7.10

pIC50 [2]: 6.51
Structure (SMILES): CCOC(=O)[C@@H]1CS[C@@]2(C(=O)N(C)c3ccc(Br)cc32)N1C(=O)c1ccccc1
pIC50 [1]: 6.68

pIC50 [2]: 6.00
Structure (SMILES): CCOC(=O)[C@@H]1CS[C@]2(N1)C(=O)N(C(=O)c1ccc(Cl)cc1)c1ccccc12
pIC50 [1]: 5.99

pIC50 [2]: 5.32
Structure (SMILES): CCOC(=O)[C@@H]1CS[C@@]2(C(=O)Nc3ccc(C)cc32)N1C(=O)Cc1ccc(Cl)cc1
pIC50 [1]: 6.11

pIC50 [2]: < 5.30
Structure (SMILES): CCOC(=O)[C@@H]1CS[C@@]2(C(=O)Nc3ccccc32)N1C(=O)Cc1ccc(Cl)cc1
pIC50 [1]: 6.00

inhibition [7]: inactive
inhibition [16]: Active
pIC50 [17]: 6.85
pIC50 [18]: 6.39
inhibition [23]: Active
inhibition [26]: Active
pIC50 [2]: 7.40
Structure (SMILES): CCOC(=O)[C@@H]1CS[C@@]2(C(=O)N(C)c3ccc(Br)cc32)N1C(=O)C1CCCCC1 (mixture of isomers)
pIC50 [3]: 6.26
Activity [4]: Active
Activity [5]: 12%
Activity [6]: tde
pIC50 [1]: 7.15
pIC50 [8]: 7.15
Activity [9]: inactive
Activity [10]: tde
Activity [11]: inactive
Activity [12]: Active
Activity [13]: inactive
Activity [14]: Active
Activity [15]: inactive
pIC50 [19]: 7.00
Ratio IC50 [20]: 18
Activity [21]: 10%
Activity [22]: inactive
pIC50 [24]: 5.80
Activity [25]: tde
Activity [27]: tde
Activity [28]: inactive
Activity [29]: Active

pIC50 [2]: 5.64
Structure (SMILES): CCOC(=O)[C@@H]1CS[C@@]2(C(=O)N(C)c3ccccc32)N1C(=O)C1CCCCC1 (mixture of isomers)
pIC50 [1]: 5.72

pIC50 [2]: 6.66
Structure (SMILES): CCOC(=O)[C@@H]1CS[C@@]2(C(=O)Nc3ccc(Br)cc32)N1C(=O)C1CCCCC1 (mixture of isomers)
pIC50 [1]: 6.25

pIC50 [17]: 4.99
pIC50 [18]: 4.52
pIC50 [2]: 5.54
Structure (SMILES): COc1ccc(C2=N[C@@H](c3ccc(Cl)cc3)[C@@H](c3ccc(Cl)cc3)N2C(=O)N2CCNC(=O)C2)c(OC(C)C)c1 (relative stereo) [NUTLIN-3]
pIC50 [3]: 4.64
pIC50 [8]: 4.81
pIC50 [19]: 4.57
pIC50 [24]: 5.85
